US9714433B2, “Human pluripotent stem cells induced from undifferentiated stem cells derived from a human postnatal tissue” (Kyoto University, priority 2007, dated 2017)

How the values were obtained:
[1] = test system: cells derived from mouse bone marrow; test: Induction of mouse pluripotent stem cells by three gene introduction and MS-275 treatment (colony formation, alkaline phosphatase staining); format: cell-based
Procedure: Staining for confirming alkaline phosphatase activity which is a characteristic of pluripotent stem cells was conducted in the following manner. After removing the culture medium, a 10% formalin neutral buffer solution was added to wells, and cells were fixed at room temperature for 5 minutes. After washing with a phosphate buffer etc., a chromogenic substrate of alkaline phosphatase, 1 step NBT/BCIP (manufactured by Pierce) was added and reacted at room temperature for 20 to 30 minutes. Cells having alkaline phosphatase activity were all stained blue violet.
The primary culture cells derived from mouse bone marrow containing undifferentiated stem cells that had been stored frozen after preparing in a manner similar to Example 11 were plated at a concentration of 5×10^3 cells/cm^2 on a 24-well plastic plate (manufactured by Becton Dickinson) having the bottom which had been gelatin-coated with a 0.1% gelatin/phosphate buffer, and 2 ml each of the MAPC medium was added.
Eight hours later, the medium was removed, 2 ml each of the three gene (human Oct3/4, Sox2 and Klf4) retrovirus vector solution prepared as in Example 1 were added, and after further adding MS-275, a histone deacetylase inhibitor, at a final concentration of 1 or 0.1 μM, they were cultured at 37° C. for 14 hours. […]

mouse Nanog = test: Nanog expression of colonies by quantitative PCR; format: cell-based; conditions: three genes + MS-275 0.1 or 1.0 μM; compared with alkaline phosphatase-negative colonies; FIG. 3
Procedure: The expression of target gene of each colony including an alkaline phosphatase-positive colonies was determined using quantitative PCR in the following manner. Colonies developed by the induction of pluripotent stem cells were harvested, and RNA was extracted using the Recoverall total nucleic acid isolation kit for FFPE (manufactured by Ambion). After synthesizing cDNA from the extracted RNA, the target gene was amplified using the Taqman Preamp mastermix (manufactured by Applied Biosystems). As the primers for quantitative PCR, the Taqman gene exprESsion assay (manufactured by Applied Biosystems) was used. […] Human Hprt: Hs99999909_m1, human Nanog: Hs02387400_g1, human Tert: Hs00162669_m1, Mouse Hprt: Mm01545399_m1, mouse Nanog: Ma02019550_s1. Then, the amount expressed of the Nanog gene was confirmed by quantitative PCR, and the expression of mouse Nanog of colonies of pluripotent stem cells having alkaline phosphatase activity was confirmed (FIG. 3).

syngeneic C57BL/6N mice = test: Teratoma formation of induced mouse pluripotent stem cells transplanted subcutaneously; format: in vivo; conditions: cells induced by three genes + MS-275; 2×10^7 cells/mouse subcutaneously; 34 days later; three germ layers observed
Procedure: From the extracted teratoma, slices were prepared, and differentiation potential into three germ layers was analyzed by immunological and histological staining (HE stain, alcian blue stain). As a result, GFAP-positive cells (the nervous system) and keratin producing cells (skin cells) as the ectodermic system, smooth muscle actin-positive cells (smooth muscle cells), bone tissues and cartilage tissues as the mesodermic system, and intestinal tract tissues (endodermal epithelium positive for MUC-1) as the endodermic system were observed.

Nc1ccccc1NC(=O)c1ccc(CNC(=O)OCc2cccnc2)cc1 [MS-275, N-(2-aminophenyl)-4-[N-(pyridine-3-yl-methoxycarbonyl)aminomethyl]benzamide]
formation of pluripotent stem cell colonies ([1]; three genes (human Oct3/4, Sox2, Klf4) retrovirus + MS-275 1 or 0.1 μM, fifteen days after): formed colonies composed of mouse ES cell-like small cells
alkaline phosphatase activity staining of colonies ([1]; three genes + MS-275 1 or 0.1 μM): stained blue violet by alkaline phosphatase activity
expression of Nanog in alkaline phosphatase-positive colonies (mouse Nanog): significantly higher than the alkaline phosphatase-negative colonies
teratoma formation (syngeneic C57BL/6N mice): teratoma that formed was extracted
